Among the data in ChEMBL document CHEMBL1137464, “Novel steroidal saponins, Sch 725737 and Sch 725739, from a marine starfish, Novodinia antillensis” (Bioorg Med Chem Lett, 2007) are inhibition and IC50 values, retold here.

Assay [1] deals with T1, Sodium channel protein type 10 subunit alpha (Homo sapiens, UniProt Q9Y5Y9). The assay is described as follows: Inhibition of sodium channel NaV1.8 at 20 ug/mL by HTS assay.
Target sequence in this assay (Q9Y5Y9 whole entry, looked up): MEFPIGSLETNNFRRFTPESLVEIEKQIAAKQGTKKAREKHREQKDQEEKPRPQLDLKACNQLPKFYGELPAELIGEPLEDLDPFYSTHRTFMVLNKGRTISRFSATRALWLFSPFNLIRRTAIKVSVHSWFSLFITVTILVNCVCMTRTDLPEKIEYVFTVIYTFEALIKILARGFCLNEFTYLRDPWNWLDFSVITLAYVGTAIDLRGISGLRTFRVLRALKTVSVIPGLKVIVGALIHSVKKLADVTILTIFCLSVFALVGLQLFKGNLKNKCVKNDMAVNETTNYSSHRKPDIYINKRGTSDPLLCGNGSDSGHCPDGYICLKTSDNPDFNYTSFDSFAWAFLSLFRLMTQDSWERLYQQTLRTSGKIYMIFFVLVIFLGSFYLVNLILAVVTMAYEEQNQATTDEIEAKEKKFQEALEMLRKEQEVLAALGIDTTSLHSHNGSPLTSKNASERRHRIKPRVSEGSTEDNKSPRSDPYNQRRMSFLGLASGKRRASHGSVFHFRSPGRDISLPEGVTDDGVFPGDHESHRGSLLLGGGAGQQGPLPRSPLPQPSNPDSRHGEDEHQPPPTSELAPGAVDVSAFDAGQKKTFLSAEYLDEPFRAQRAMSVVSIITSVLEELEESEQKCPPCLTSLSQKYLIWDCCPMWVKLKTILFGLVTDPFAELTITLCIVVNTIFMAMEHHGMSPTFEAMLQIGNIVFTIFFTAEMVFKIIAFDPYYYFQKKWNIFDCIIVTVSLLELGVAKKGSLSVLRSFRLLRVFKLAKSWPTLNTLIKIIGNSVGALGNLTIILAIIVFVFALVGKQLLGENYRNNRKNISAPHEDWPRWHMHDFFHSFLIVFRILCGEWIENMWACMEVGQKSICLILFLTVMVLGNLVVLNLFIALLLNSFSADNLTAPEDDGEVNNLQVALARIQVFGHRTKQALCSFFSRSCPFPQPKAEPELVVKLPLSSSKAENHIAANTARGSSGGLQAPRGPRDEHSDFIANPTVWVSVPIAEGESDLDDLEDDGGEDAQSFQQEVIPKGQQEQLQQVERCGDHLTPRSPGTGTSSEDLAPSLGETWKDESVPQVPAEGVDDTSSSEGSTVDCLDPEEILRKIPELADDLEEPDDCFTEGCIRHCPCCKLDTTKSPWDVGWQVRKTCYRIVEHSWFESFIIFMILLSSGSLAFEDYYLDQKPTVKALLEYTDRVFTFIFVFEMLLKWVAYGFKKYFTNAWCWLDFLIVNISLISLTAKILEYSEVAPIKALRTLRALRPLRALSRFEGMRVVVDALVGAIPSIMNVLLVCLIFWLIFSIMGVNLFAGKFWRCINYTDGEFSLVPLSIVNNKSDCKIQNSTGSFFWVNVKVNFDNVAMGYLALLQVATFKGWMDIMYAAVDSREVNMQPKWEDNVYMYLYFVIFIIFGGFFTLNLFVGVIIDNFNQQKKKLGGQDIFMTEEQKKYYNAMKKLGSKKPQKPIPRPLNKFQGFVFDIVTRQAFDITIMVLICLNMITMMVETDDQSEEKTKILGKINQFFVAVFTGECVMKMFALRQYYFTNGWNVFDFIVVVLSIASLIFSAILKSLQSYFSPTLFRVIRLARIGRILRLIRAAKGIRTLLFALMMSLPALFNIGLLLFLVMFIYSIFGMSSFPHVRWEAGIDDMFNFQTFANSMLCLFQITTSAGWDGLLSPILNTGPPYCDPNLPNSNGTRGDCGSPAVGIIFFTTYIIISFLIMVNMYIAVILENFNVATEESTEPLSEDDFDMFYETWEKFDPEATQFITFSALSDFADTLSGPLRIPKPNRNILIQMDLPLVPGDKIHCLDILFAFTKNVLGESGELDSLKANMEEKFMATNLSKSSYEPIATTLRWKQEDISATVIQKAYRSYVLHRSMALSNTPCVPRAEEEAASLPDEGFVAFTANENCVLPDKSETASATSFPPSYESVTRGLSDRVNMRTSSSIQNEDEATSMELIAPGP
Assay [2] addresses T1, Sodium channel protein type 10 subunit alpha. In words: Inhibition of sodium channel NaV1.8 expressed in rat ND7/23 cells by FLIPR assay. Type of assay: cell-based.
Target sequence in this assay (Q9Y5Y9 whole entry): as the sequence (Q9Y5Y9 whole entry, looked up) above

Consider `CC(C)CCC[C@@](C)(O)[C@H]1CC[C@H]2[C@@H]3C[C@H](O[C@@H]4O[C@H](C)[C@@H](O)[C@H](O[C@@H]5O[C@H](C)[C@@H](O[C@@H]6O[C@H](C)[C@@H](O[C@@H]7OC[C@H](O)[C@H](O)[C@H]7O)[C@H](O)[C@H]6O[C@@H]6O[C@H](C)[C@H](O)[C@H](O)[C@H]6O)[C@H](O)[C@H]5O[C@@H]5O[C@H](C)[C@@H](O)[C@H](O)[C@H]5O)[C@H]4O)[C@H]4C[C@@H](OS(=O)(=O)O)CC[C@]4(C)C3=CC[C@@]21C`, for which the inhibition in assay [1] is 88%.
`CC(C)CCC[C@@](C)(O)[C@H]1CC[C@H]2[C@@H]3C[C@H](O[C@@H]4O[C@H](C)[C@@H](O)[C@H](O[C@@H]5OC[C@@H](O[C@@H]6O[C@H](C)[C@@H](O[C@@H]7OC[C@H](O)[C@H](O)[C@H]7O)[C@H](O)[C@H]6O[C@@H]6O[C@H](C)[C@H](O)[C@H](O)[C@H]6O)[C@H](O)[C@H]5O[C@@H]5O[C@H](C)[C@@H](O)[C@H](O)[C@H]5O)[C@H]4O)[C@H]4C[C@@H](OS(=O)(=O)O)CC[C@]4(C)C3=CC[C@@]21C`: the inhibition in assay [1] is 88%. Besides, the midpoint of inhibition in assay [2], the IC50, lay at 9 µM.

A word on the inhibition: it is the relative decrease from the control value, in per cent. Lower therefore signals a weak effect. For orientation: IC50 means the concentration that inhibits the measured activity by half. A higher IC50 goes with weaker potency in that assay.
